Data as given in PubChem BioAssay (NCI).
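Dose response: 5 concentrations. Exposure: 48 h. Format: 96-well plates. Endpoint: linear interpolation; highest concentration if not reached. GI50 = concentration required for 50% inhibition of growth. TGI: total growth inhibition.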

What was measured:
Experiment in all cases: NCI-60 cell line screen, 48 h
NCI/ADR-RES ovarian = tested on: NCI/ADR-RES ovarian
CAKI-1 renal = tested on: CAKI-1 renal
A549 NSCLC = tested on: A549 NSCLC
SF-295 CNS = tested on: SF-295 CNS
HOP-62 NSCLC = tested on: HOP-62 NSCLC
786-0 renal = tested on: 786-0 renal
KM12 colon = tested on: KM12 colon
OVCAR-4 ovarian = tested on: OVCAR-4 ovarian
MDA-MB-435 = tested on: MDA-MB-435
UACC-62 melanoma = tested on: UACC-62 melanoma

Structure (SMILES)	GI50 (NCI/ADR-RES ovarian)	TGI (NCI/ADR-RES ovarian)	GI50 (CAKI-1 renal)	TGI (CAKI-1 renal)	GI50 (A549 NSCLC)	TGI (A549 NSCLC)	GI50 (SF-295 CNS)	TGI (SF-295 CNS)	GI50 (HOP-62 NSCLC)	TGI (HOP-62 NSCLC)	GI50 (786-0 renal)	TGI (786-0 renal)	GI50 (KM12 colon)	TGI (KM12 colon)	GI50 (OVCAR-4 ovarian)	TGI (OVCAR-4 ovarian)	GI50 (MDA-MB-435)	TGI (MDA-MB-435)	GI50 (UACC-62 melanoma)	TGI (UACC-62 melanoma)
COc1ccc(NC(=O)C2CCC(CNS(=O)(=O)c3ccccc3)CC2)cc1OC (stereo not given)	> 100000 nM	> 100 µM	> 100 µM	> 100 µM	> 100000 nM	> 100 µM	> 100000 nM	> 100 µM	26800 nM	86.8 µM	> 100 µM	> 100 µM	> 100 µM	> 100 µM	> 100 µM	> 100 µM	> 100 µM	> 100 µM	54600 nM	> 100 µM
Nc1nc(Nc2ccccc2SSc2ccccc2Nc2nc(N)nc(C(Cl)(Cl)Cl)n2)nc(C(Cl)(Cl)Cl)n1	3680 nM	16.6 µM	3.01 µM	10.5 µM	2950 nM	10.8 µM	1990 nM	4.75 µM	2070 nM	6.33 µM	7 µM	19.9 µM	4.05 µM	28.9 µM	6.86 µM	45.1 µM	6.39 µM	24.9 µM	2940 nM	11.4 µM
Cn1cc(C2=C(c3cccc(OC[C@@H](O)CO)c3)C(=O)NC2=O)c2ccccc21	> 25000 nM	> 25 µM	15.3 µM	> 25 µM	> 25000 nM	> 25 µM	3590 nM	> 25 µM	> 25000 nM	> 25 µM	14 µM	> 25 µM	11 µM	> 25 µM	> 16.4 µM	> 25 µM	> 25 µM	> 25 µM	> 25000 nM	> 25 µM
CCCCCO/N=C\c1c2c(O)c3c(O)c(C)c4c(c3c1O)C(=O)C(C)(O/C=C\C(OC)C(C)C(OC(C)=O)C(C)C(O)C(C)C(O)C(C)/C=C\C=C(\C)C(=O)N2)O4 (stereo not given)	1790 nM	3.68 µM	1.91 µM	4.5 µM	1800 nM	3.39 µM	1870 nM	4.3 µM	1650 nM	3.04 µM	1.73 µM	3.25 µM	1.64 µM	3 µM	2.28 µM	6.1 µM	1.81 µM	3.68 µM	1390 nM	2.71 µM
COc1ccc(/C=C(\C#N)n2nnc3c(F)cccc32)cc1	181 nM	4.52 µM	0.122 µM	> 100 µM	780 nM	> 100 µM	275 nM	2.72 µM	621 nM	> 83.1 µM	0.607 µM	> 51.2 µM	0.39 µM	> 100 µM	> 28.2 µM	> 100 µM	0.052 µM	0.371 µM	303 nM	15 µM
Cc1cc[n+]2c(c1)-c1cc(C)cc[n+]1CC2		> 100 µM		> 100 µM		> 100 µM		> 100 µM		> 100 µM		> 100 µM		> 100 µM		> 100 µM		> 100 µM		> 100 µM
O=C(O)c1cccc(C(=O)O)c1S(=O)Cc1ccccc1 (stereo not given)		> 100 µM		> 100 µM		> 100 µM		> 100 µM		> 100 µM		> 100 µM		> 100 µM		> 100 µM		> 100 µM		> 100 µM
